Values quoted from earlier work, collected in patent US7994218B2, “Simple pantoic acid ester neopentyl sulfonyl ester cyclization release prodrugs of acamprosate, compositions thereof, and methods of use” (XenoPort, Inc., priority 2007, dated 2011).

Legend:
[1] = acamprosate doses about 1-2 gm per day
cocaine conditioned mice = details: 100 mg/kg acamprosate for 3 days

CC(=O)NCCCS(=O)(=O)O [acamprosate, 3-(Acetylamino)propylsulfonic acid]
time at which steady-state plasma concentration occurs post-dose [1]: 3 to 8 h
effect on relapse-like behavior (cocaine conditioned mice): attenuated relapse-like behavior
